Active and inactive are the calls of the source.
Legend:
[1] = tested on: Oryza sativa; assay: Phytotoxicity against Oryza sativa cv. Koshihikari (rice) at 2000 g a.i/ha measured after 14 days; type: organism-based; conditions: in vivo, 336 h
[2] = tested on: Echinochloa oryzicola; assay: Pre-emergence herbicidal activity against Echinochloa oryzicola at 2000 g a.i/ha measured after 14 days; type: functional, organism-based
[3] = tested on: Eleocharis acicularis; assay: Post-emergence herbicidal activity against Eleocharis acicularis assessed as bleaching of stem/leaf parts; type: functional, organism-based; also: test concentration or dose not given here
[4] = tested on: Eleocharis acicularis; assay: Pre-emergence herbicidal activity against Eleocharis acicularis assessed as bleaching of stem/leaf parts; type: functional, organism-based
[5] = tested on: Ammannia multiflora; assay: Pre-emergence herbicidal activity against Ammannia multiflora assessed as bleaching of stem/leaf parts; type: functional, organism-based
[6] = tested on: Rotala indica; assay: Pre-emergence herbicidal activity against Rotala indica assessed as bleaching of stem/leaf parts; type: functional, organism-based
[7] = tested on: Elatine triandra; assay: Pre-emergence herbicidal activity against Elatine triandra assessed as bleaching of stem/leaf parts; type: functional, organism-based
[8] = tested on: Lindernia procumbens; assay: Pre-emergence herbicidal activity against Lindernia procumbens assessed as bleaching of stem/leaf parts; type: functional, organism-based
[9] = tested on: Schoenoplectiella juncoides; assay: Pre-emergence herbicidal activity against Schoenoplectiella juncoides assessed as bleaching of stem/leaf parts; type: functional, organism-based
[10] = tested on: Pontederia vaginalis; assay: Pre-emergence herbicidal activity against Monochoria vaginalis assessed as bleaching of stem/leaf parts; type: functional, organism-based
[11] = tested on: Cyperus difformis; assay: Pre-emergence herbicidal activity against Cyperus difformis assessed as bleaching of stem/leaf parts; type: functional, organism-based
[12] = tested on: Echinochloa oryzicola; assay: Pre-emergence herbicidal activity against Echinochloa oryzicola assessed as bleaching of stem/leaf parts; type: functional, organism-based
[13] = tested on: Ammannia multiflora; assay: Post-emergence herbicidal activity against Ammannia multiflora assessed as bleaching of stem/leaf parts; type: functional, organism-based; also: test concentration or dose not given here
[14] = tested on: Elatine triandra; assay: Post-emergence herbicidal activity against Elatine triandra assessed as bleaching of stem/leaf parts; type: functional, organism-based; also: test concentration or dose not given here
[15] = tested on: Rotala indica; assay: Post-emergence herbicidal activity against Rotala indica assessed as bleaching of stem/leaf parts; type: functional, organism-based; also: test concentration or dose not given here
[16] = tested on: Schoenoplectiella juncoides; assay: Post-emergence herbicidal activity against Schoenoplectiella juncoides assessed as bleaching of stem/leaf parts; type: functional, organism-based; also: test concentration or dose not given here
[17] = tested on: Lindernia procumbens; assay: Post-emergence herbicidal activity against Lindernia procumbens assessed as bleaching of stem/leaf parts; type: functional, organism-based; also: test concentration or dose not given here
[18] = tested on: Pontederia vaginalis; assay: Post-emergence herbicidal activity against Monochoria vaginalis assessed as bleaching of stem/leaf parts; type: functional, organism-based; also: test concentration or dose not given here
[19] = tested on: Cyperus difformis; assay: Post-emergence herbicidal activity against Cyperus difformis assessed as bleaching of stem/leaf parts; type: functional, organism-based; also: test concentration or dose not given here
[20] = tested on: Echinochloa oryzicola; assay: Post-emergence herbicidal activity against Echinochloa oryzicola assessed as bleaching of stem/leaf parts; type: functional, organism-based; also: test concentration or dose not given here
[21] = tested on: Eleocharis acicularis; assay: Pre-emergence herbicidal activity against Eleocharis acicularis at 2000 g a.i/ha measured after 14 days; type: functional, organism-based
[22] = tested on: Schoenoplectiella juncoides; assay: Pre-emergence herbicidal activity against Schoenoplectiella juncoides at 2000 g a.i/ha measured after 14 days; type: functional, organism-based
[23] = tested on: Pontederia vaginalis; assay: Pre-emergence herbicidal activity against Monochoria vaginalis at 2000 g a.i/ha measured after 14 days; type: functional, organism-based
[24] = tested on: Ammannia multiflora; assay: Pre-emergence herbicidal activity against Ammannia multiflora at 2000 g a.i/ha measured after 14 days; type: functional, organism-based
[25] = tested on: Rotala indica; assay: Pre-emergence herbicidal activity against Rotala indica at 2000 g a.i/ha measured after 14 days; type: functional, organism-based
[26] = tested on: Elatine triandra; assay: Pre-emergence herbicidal activity against Elatine triandra at 2000 g a.i/ha measured after 14 days; type: functional, organism-based
[27] = tested on: Lindernia procumbens; assay: Pre-emergence herbicidal activity against Lindernia procumbens at 2000 g a.i/ha measured after 14 days; type: functional, organism-based
[28] = tested on: Cyperus difformis; assay: Pre-emergence herbicidal activity against Cyperus difformis at 2000 g a.i/ha measured after 14 days; type: functional, organism-based

| Compound | Activity [1] | Activity [2] | Activity [3] | Activity [4] | Activity [5] | Activity [6] | Activity [7] | Activity [8] | Activity [9] | Activity [10] | Activity [11] | Activity [12] | Activity [13] | Activity [14] | Activity [15] | Activity [16] | Activity [17] | Activity [18] | Activity [19] | Activity [20] | further results |
| --- | --- | --- | --- | --- | --- | --- | --- | --- | --- | --- | --- | --- | --- | --- | --- | --- | --- | --- | --- | --- | --- |
| CCCN(CC)C(=O)c1cn(C)nc1OCc1ccc(C(F)(F)F)cc1 | Non-toxic | inactive | Active | Active | Active | Active | Active | Active | Active | Active | Active | Active | Active | Active | Active | Active | Active | Active | Active | Active | Activity [21]: inactive; Activity [22]: Active; Activity [23]: Active; Activity [24]: Active; Activity [25]: Active; Activity [26]: Active; Activity [27]: Active; Activity [28]: inactive |
| CCCN(CC)C(=O)c1cn(C)nc1OCc1cc(Br)cc(Br)c1 | Non-toxic | inactive | Active | Active | Active | Active | Active | Active | Active | Active | Active | Active | Active | Active | Active | Active | Active | Active | Active | Active | Activity [21]: inactive; Activity [22]: inactive; Activity [23]: inactive; Activity [24]: inactive; Activity [25]: inactive; Activity [26]: inactive; Activity [27]: inactive; Activity [28]: inactive |
| CCCN(CC)C(=O)c1cn(C)nc1OCc1cccc(Cl)c1 | Non-toxic | Active | Active | Active | Active | Active | Active | Active | Active | Active | Active | Active | Active | Active | Active | Active | Active | Active | Active | Active | Activity [21]: Active; Activity [22]: Active; Activity [23]: Active; Activity [24]: Active; Activity [25]: Active; Activity [26]: Active; Activity [27]: Active; Activity [28]: Active |
| CCCN(CC)C(=O)c1cn(C)nc1OCc1ccc(SC)cc1 | Non-toxic | inactive | Active | Active | Active | Active | Active | Active | Active | Active | Active | Active | Active | Active | Active | Active | Active | Active | Active | Active | Activity [21]: inactive; Activity [22]: inactive; Activity [23]: inactive; Activity [24]: inactive; Activity [25]: inactive; Activity [26]: inactive; Activity [27]: inactive; Activity [28]: inactive |
| C#CCOc1nn(C)cc1C(=O)N(CC)CCC | Non-toxic | inactive | Active | Active | Active | Active | Active | Active | Active | Active | Active | Active | Active | Active | Active | Active | Active | Active | Active | Active | Activity [21]: inactive; Activity [22]: inactive; Activity [23]: inactive; Activity [24]: inactive; Activity [25]: inactive; Activity [26]: inactive; Activity [27]: inactive; Activity [28]: inactive |
| CCCN(CC)C(=O)c1cn(C)nc1OCc1cccc(C(F)(F)F)c1 | Toxic | Active | Active | Active | Active | Active | Active | Active | Active | Active | Active | Active | Active | Active | Active | Active | Active | Active | Active | Active | Activity [21]: Active; Activity [22]: Active; Activity [23]: Active; Activity [24]: inactive; Activity [25]: inactive; Activity [26]: inactive; Activity [27]: inactive; Activity [28]: Active |

From ChEMBL document CHEMBL3046635, “Synthesis and Herbicidal Activity of New Pyrazole-4-carboxamide Derivatives” (J Pestic Sci, 2004)
